pIC50: −log10 of the molar value.
target: T1, IRAK3 (Homo sapiens, UniProt Q9Y616); assay: IRAK3 biochemical binding assay (LanthaScreen Eu Kinase Binding, TR-FRET); details: 10 nM tracer, 10 nM IRAK3, 1 hour at room temperature
T1 sequence (Q9Y616 1-596): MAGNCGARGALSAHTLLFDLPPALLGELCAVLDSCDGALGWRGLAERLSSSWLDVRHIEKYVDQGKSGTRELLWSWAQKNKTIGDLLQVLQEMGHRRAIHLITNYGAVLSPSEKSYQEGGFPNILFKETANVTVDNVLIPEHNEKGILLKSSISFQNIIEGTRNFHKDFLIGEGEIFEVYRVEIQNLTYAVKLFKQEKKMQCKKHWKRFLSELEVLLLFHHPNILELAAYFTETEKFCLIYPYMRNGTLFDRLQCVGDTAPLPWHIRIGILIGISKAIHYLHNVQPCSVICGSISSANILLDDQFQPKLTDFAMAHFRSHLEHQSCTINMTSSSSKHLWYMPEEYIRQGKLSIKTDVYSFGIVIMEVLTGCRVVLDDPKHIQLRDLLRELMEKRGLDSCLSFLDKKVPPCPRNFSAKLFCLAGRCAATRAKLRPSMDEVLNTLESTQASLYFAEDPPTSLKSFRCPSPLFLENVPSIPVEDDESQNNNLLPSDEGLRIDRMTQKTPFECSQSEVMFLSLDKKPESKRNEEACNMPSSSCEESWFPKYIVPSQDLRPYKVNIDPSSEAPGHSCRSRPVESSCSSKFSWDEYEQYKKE
Protocol: Example B3. IRAK3 Biochemical Binding Assay
The LanthaScreen® Eu Kinase Binding assay was performed as described by the vendor (ThermoFisher Scientific Waltham, MA). Briefly, 100× solutions of compound were prepared in DMSO via serial dilution of the 10 mM stock solution in a 384-well reagent plate using 3-fold intervals to achieve final concentrations. 1 μL of the compound dilution series were added to the corresponding wells of a 384-well reagent plate containing 32.3 μL of 1× buffer (50 mM HEPES pH 7.4, […], 1 mM EGTA, 0.01% Brij-35). 5 μL of the buffer diluted compounds were transferred to the corresponding wells of a 384-well assay plate. 5 μL of 3× tracer was transferred to each well of the assay plate for a final tracer concentration of 10 nM. Finally, 5 μL of the 3× Eu-Anti-GST and IRAK3 mix was transferred to each well for a final concentration of 2 nM and 10 nM, respectively. Reactions were allowed to incubate for 1 hour at room temperature. TR-FRET signal of the interaction ([…]/λem 665/λem 615) was read at room temperature with a delay time of 100 μs and an integration time of 200 μs using an Envision plate reader. Background corrected emission signal ratios at each compound concentration were used to calculate percentage of inhibition (% o Inhibition). Plots of % Inhibition versus inhibitor concentrations were fit according to a dose-response equation (Eq. 1) to generate IC50 and Hill slope values using Dotmatics software (Dotmatics, Bishops Storford, Hertfordshire, England).
Using these assays, IC50, Dmax, EC50, and DC50 values of the following compounds were determined. Dmax is defined as the maximum percent degradation achieved and DC50 is the concentration at which 50% degradation is achieved.

pIC50 | SMILES
6.92 | Cc1ncsc1-c1ccc(CNC(=O)[C@@H]2C[C@@H](O)CN2C(=O)[C@@H](NC(=O)COCCOCCOCCOCCN2CCC(n3cc(-c4cnc(N)c(O[C@H](C)c5c(Cl)ccc(F)c5Cl)c4)cn3)CC2)C(C)(C)C)cc1 [Compound 4, (2S,4R)-1-((S)-17-(4-(4-(6-amino-5-((R)-1-(2,6-dichloro-3-fluorophenyl)ethoxy)pyridin-3-yl)-1H-pyrazol-1-yl)piperidin-1-yl)-2-(tert-butyl)-4-oxo-6,9,12,15-tetraoxa-3-azaheptadecanoyl)-4-hydroxy-N-(4-(4-methylthiazol-5-yl)benzyl)pyrrolidine-2-carboxamide]
7.35 | C[C@@H](Oc1cc(-c2cnn(C3CCN(CCOCCNC(=O)COc4cccc5c4C(=O)N(C4CCC(=O)NC4=O)C5=O)CC3)c2)cnc1N)c1c(Cl)ccc(F)c1Cl (stereo partly drawn) [Compound 9, N-(2-(2-(4-(4-(6-amino-5-((R)-1-(2,6-dichloro-3-fluorophenyl)ethoxy)pyridin-3-yl)-1H-pyrazol-1-yl)piperidin-1-yl)ethoxy)ethyl)-2-((2-(2,6-dioxopiperidin-3-yl)-1,3-dioxoisoindolin-4-yl)oxy)acetamide]
8.00 | C[C@@H](Oc1cc(-c2cnn(C3CCN(C4CCC5(CC4)CCN(C(=O)c4ccc6c(c4)CN(C4CCC(=O)NC4=O)C6=O)CC5)CC3)c2)cnc1N)c1c(Cl)ccc(F)c1Cl (stereo partly drawn) [Compound 20, 3-(5-(9-(4-(4-(6-amino-5-((R)-1-(2,6-dichloro-3-fluorophenyl)ethoxy)pyridin-3-yl)-1H-pyrazol-1-yl)piperidin-1-yl)-3-azaspiro[5.5]undecane-3-carbonyl)-1-oxoisoindolin-2-yl)piperidine-2,6-dione]
6.86 | Cc1ncsc1-c1ccc(CNC(=O)[C@@H]2C[C@@H](O)CN2C(=O)[C@@H](NC(=O)COCCOCCN2CCC(n3cc(-c4cnc(N)c(O[C@H](C)c5c(Cl)ccc(F)c5Cl)c4)cn3)CC2)C(C)(C)C)cc1 [Compound 2, (2S,4R)-1-((S)-2-(2-(2-(2-(4-(4-(6-amino-5-((R)-1-(2,6-dichloro-3-fluorophenyl)ethoxy)pyridin-3-yl)-1H-pyrazol-1-yl)piperidin-1-yl)ethoxy)ethoxy)acetamido)-3,3-dimethylbutanoyl)-4-hydroxy-N-(4-(4-methylthiazol-5-yl)benzyl)pyrrolidine-2-carboxamide]
6.95 | Cc1ncsc1-c1ccc(CNC(=O)[C@@H]2C[C@@H](O)CN2C(=O)[C@@H](NC(=O)CCCN2CCC(n3cc(-c4cnc(N)c(O[C@H](C)c5c(Cl)ccc(F)c5Cl)c4)cn3)CC2)C(C)(C)C)cc1 [Compound 1, (2S,4R)-1-((S)-2-(4-(4-(4-(6-amino-5-((R)-1-(2,6-dichloro-3-fluorophenyl)ethoxy)pyridin-3-yl)-1H-pyrazol-1-yl)piperidin-1-yl)butanamido)-3,3-dimethylbutanoyl)-4-hydroxy-N-(4-(4-methylthiazol-5-yl)benzyl)pyrrolidine-2-carboxamide]
7.80 | C[C@@H](Oc1cc(-c2cnn(C3CCN(CCNC(=O)COc4ccc5c(c4)C(=O)N(C4CCC(=O)NC4=O)C5=O)CC3)c2)cnc1N)c1c(Cl)ccc(F)c1Cl (stereo partly drawn) [Compound 13, N-(2-(4-(4-(6-amino-5-((R)-1-(2,6-dichloro-3-fluorophenyl)ethoxy)pyridin-3-yl)-1H-pyrazol-1-yl)piperidin-1-yl)ethyl)-2-((2-(2,6-dioxopiperidin-3-yl)-1,3-dioxoisoindolin-5-yl)oxy)acetamide]
6.73 | Cc1ncsc1-c1ccc(CNC(=O)[C@@H]2C[C@@H](O)CN2C(=O)[C@@H](NC(=O)COCCOCCOCCN2CCC(n3cc(-c4cnc(N)c(O[C@H](C)c5c(Cl)ccc(F)c5Cl)c4)cn3)CC2)C(C)(C)C)cc1 [Compound 3, (2S,4R)-1-((S)-14-(4-(4-(6-amino-5-((R)-1-(2,6-dichloro-3-fluorophenyl)ethoxy)pyridin-3-yl)-1H-pyrazol-1-yl)piperidin-1-yl)-2-(tert-butyl)-4-oxo-6,9,12-trioxa-3-azatetradecanoyl)-4-hydroxy-N-(4-(4-methylthiazol-5-yl)benzyl)pyrrolidine-2-carboxamide]

From patent US20260234124A1, “Substituted Pyrazolyl-Pyridinyl Compounds as Ligand Directed Degraders of IRAK3” (Celgene Corporation, priority 2022, published 2026)
